Our source for the IC50 and AC50 values is ChEMBL document CHEMBL1201862, “PubChem BioAssay data set” (2004).

The source made the active and inactive calls.

Assay [1] deals with RNA-editing ligase 1, mitochondrial (Trypanosoma brucei brucei, UniProt P86926). As to the kind of experiment: inhibition of trypanosome RNA editing ligase – biochemical, fluorescence, Trypanosoma brucei, dose response (AID 1117295). In kind it is functional.
The target of assay [2] is T1, Methionyl-tRNA synthetase, putative (Trypanosoma brucei brucei, UniProt Q38C91). The assay is classed as functional, Trypanosoma brucei brucei strain 927/4 GUTat10.1.
A short description of assay [3]: Counterscreen for inhibitors of Trypanosoma brucei methionyl tRNA synthetase (MetRS): Luminescence-based cell-based high throughput dose response assay to identify compounds that are cytotoxic to Jurkat human T lymphocyte cells. The assay is classed as functional.
For assay [4], the target named is T1, Methionyl-tRNA synthetase, putative. The assay is classed as functional, Trypanosoma brucei brucei strain 927/4 GUTat10.1. This is another data set of the same source.
Assay [5] can be described thus: Late stage counterscreen for inhibitors of Trypanosoma brucei methionyl tRNA synthetase (MetRS): Luminescence-based cell-based high throughput dose response assay to identify compounds that are cytotoxic to Jurkat human T lymphocyte cells. The assay is classed as functional. On the technique in general: Counterscreens check selectivity or assay interference.
Assay [6] is described as follows: Late stage assay provider results from the probe development effort to identify inhibitors of the Plasmodium falciparum M18 Aspartyl Aminopeptidase (M18AAP): radiolabel-based cell-based dose response assay to identify compounds that inhibit P. falciparum growth in RBCs, Set 2.. In kind it is functional.
For a further assay, the target named is Protein Tat (Human immunodeficiency virus type 1 group M subtype B (isolate HXB2)(HIV-1), UniProt P04608). The assay is classed as functional.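 Also: tat binding to TAR RNA read out by fluorescence polarization.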
For assay [7], the target named is NAD-dependent protein deacylase sirtuin-5, mitochondrial (Homo sapiens, UniProt Q9NXA8). As to the kind of experiment: sirtuin-5 deacylation blockers, concentration series – biochemical, fluorescence imaging, cherry-pick, set 5, dose response (AID 720591).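 Also: desuccinylation of succinyl peptide AMC substrate read as fluorescence after trypsin release; potency of inhibitors that lower fluorescence and may act on trypsin instead.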
Assay [8] in a line: T. cruzi growth inhibition in host cells, dose response, cell-based, plate reader, dry powder, set 2 (AID 652275). The assay is classed as functional.
A short description of assay [9]: growth inhibition of yeast DHODH-expressing 3D7 parasites – SYBR Green, dry powder samples, dose response (AID 1159570).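 Also: parasite growth measured after 72 hours of compound exposure.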 The assay is classed as functional, cell-based.
Assay [10] can be described thus: Dd2 parasite growth inhibition in erythrocytes – SYBR Green, dry powder samples, set 9, dose response (AID 1159568). The assay is classed as functional, cell-based.
The nature of assay [11]: P. falciparum Dd2 growth inhibitors, dose response, SYBR Green, cherry-picked samples (AID 1159567). In kind it is functional, cell-based.
Assay [12] can be described thus: Dd2 malaria parasite growth inhibition potency – SYBR Green, dry powder samples, dose response (AID 1159566).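 Also: potency for growth inhibition with lower SYBR green DNA signal.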 In kind it is functional, cell-based.
The nature of assay [13]: growth inhibition of PfATP4-mutant resistant parasites – NITD609-resistant line, SYBR Green, dry powder, dose response (AID 1159571).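 Also: parasites synchronized at ring stage by sorbitol before testing.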 The assay is classed as functional, cell-based.
Assay [14] is described as follows: rise of 2N DNA cells, HeLa – IC50, dose response (AID 1117349). The assay is classed as functional, cell-based.
A short description of assay [15]: IC50 of insulin release inhibition, rat insulinoma INS-1E line, 5 mM glucose, cell-based (AID 1117331). In kind it is functional.
The nature of another assay: cells. In kind it is functional, cell-based. The settings on record: INS-1E.
Assay [16] is described as follows: rise of 4N DNA cells, HeLa – IC50, dose response (AID 1117351). In kind it is functional, cell-based.

In general, IC50 refers to the concentration needed to halve the response being measured. The AC50 is the concentration giving half of the maximal activity seen.

T1 sequence (Q38C91 whole entry): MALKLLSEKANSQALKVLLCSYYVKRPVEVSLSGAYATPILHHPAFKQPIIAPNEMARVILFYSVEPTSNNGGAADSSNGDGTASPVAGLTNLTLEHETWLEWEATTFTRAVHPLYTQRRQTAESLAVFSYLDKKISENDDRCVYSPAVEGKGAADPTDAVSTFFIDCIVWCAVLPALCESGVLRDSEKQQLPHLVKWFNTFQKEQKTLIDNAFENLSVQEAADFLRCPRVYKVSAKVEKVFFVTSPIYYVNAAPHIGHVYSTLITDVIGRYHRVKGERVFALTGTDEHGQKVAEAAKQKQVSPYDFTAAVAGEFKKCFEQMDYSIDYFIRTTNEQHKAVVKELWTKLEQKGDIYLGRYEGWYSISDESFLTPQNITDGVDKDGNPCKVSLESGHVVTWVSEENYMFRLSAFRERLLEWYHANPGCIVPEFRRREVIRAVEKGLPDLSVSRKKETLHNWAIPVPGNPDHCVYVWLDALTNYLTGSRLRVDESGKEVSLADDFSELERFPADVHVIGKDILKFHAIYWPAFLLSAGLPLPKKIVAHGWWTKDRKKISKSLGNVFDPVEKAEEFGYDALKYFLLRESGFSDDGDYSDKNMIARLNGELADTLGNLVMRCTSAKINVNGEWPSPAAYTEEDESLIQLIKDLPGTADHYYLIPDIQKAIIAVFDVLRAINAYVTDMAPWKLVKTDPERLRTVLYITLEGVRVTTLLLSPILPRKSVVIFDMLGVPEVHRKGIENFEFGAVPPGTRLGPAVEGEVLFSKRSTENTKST
Sequence of NAD-dependent protein deacylase sirtuin-5, mitochondrial (Q9NXA8 whole entry): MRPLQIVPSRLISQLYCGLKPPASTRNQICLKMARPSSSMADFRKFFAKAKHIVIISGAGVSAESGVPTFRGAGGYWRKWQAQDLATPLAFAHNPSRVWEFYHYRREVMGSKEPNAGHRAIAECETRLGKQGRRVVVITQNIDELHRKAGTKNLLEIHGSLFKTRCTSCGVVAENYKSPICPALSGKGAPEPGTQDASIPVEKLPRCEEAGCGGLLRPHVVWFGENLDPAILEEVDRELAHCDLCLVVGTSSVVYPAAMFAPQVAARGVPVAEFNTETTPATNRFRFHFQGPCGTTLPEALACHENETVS
Sequence of Protein Tat (P04608 whole entry): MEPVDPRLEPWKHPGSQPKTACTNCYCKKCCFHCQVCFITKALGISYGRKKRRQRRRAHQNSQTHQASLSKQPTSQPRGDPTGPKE
Sequence of RNA-editing ligase 1, mitochondrial (P86926 whole entry): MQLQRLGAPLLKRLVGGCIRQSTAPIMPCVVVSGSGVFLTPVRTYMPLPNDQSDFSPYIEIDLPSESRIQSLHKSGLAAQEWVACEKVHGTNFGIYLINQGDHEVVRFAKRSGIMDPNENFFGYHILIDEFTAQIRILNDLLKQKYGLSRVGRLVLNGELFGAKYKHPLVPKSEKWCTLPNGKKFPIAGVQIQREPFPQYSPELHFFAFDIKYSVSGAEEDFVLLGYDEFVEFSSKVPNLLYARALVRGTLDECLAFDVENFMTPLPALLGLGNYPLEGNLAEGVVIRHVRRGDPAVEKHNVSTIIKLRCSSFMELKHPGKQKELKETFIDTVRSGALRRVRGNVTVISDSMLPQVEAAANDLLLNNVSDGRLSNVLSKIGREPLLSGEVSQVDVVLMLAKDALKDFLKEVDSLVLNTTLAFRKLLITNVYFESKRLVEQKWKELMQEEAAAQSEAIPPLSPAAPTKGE

As to `C#CCOCCOCCOCCNc1nc(N2CCN(C(=O)[C@H](CCCCN)n3cc([C@@H](N)CC(C)C)nn3)CC2)nc(N2CCN(C(=O)[C@H](Cc3cc4ccccc4[nH]3)n3cc([C@@H](N)CC(C)C)nn3)CC2)n1`, in assay [1], the IC50 was > 96.6 µM (inactive).
Turning to `O=C(Cn1cc(C(=O)C(=O)N2CCOCC2)c2ccccc21)Nc1cccc(C(F)(F)F)c1`, the IC50 was 352 nM (active) in assay [2], 77.5 µM (inactive) in [3], 205 nM (active) in [4] and > 83.3 µM (inactive) in [5].
Turning to `Oc1ccc(CCCNc2c3ccccc3nc3ccccc23)cc1O`, the IC50 in assay [6] was 3.7 µM (active).
As to `O=C(NCCN1CCN(c2ccccc2)CC1)C1CCN(S(=O)(=O)c2cccc3nonc23)CC1`, at Protein Tat, the half-maximal inhibitory concentration (IC50) was > 100 µM (active).
Regarding `CC1=Nc2cc(C(=O)O)ccc2Sc2ccc(Br)cc21`, the AC50 in [7] is 18.8 µM (active).
As to `CC(C)(C)[S+]([O-])N1Cc2cc(C(=O)NCc3ccc4c(c3)OCO4)nc(-c3cccc(-c4cc5ccccc5o4)c3)c2[C@H]1CCO` (stereo partly drawn), the AC50 in assay [8] is 361 nM (active); in [9] it was 1.46 µM (active); in assay [10] it was 2.2 µM (active); in assay [11] it was 1.51 µM (active); in assay [12], 1.16 µM (active); in assay [13], 1.21 µM (active).
Turning to `Cc1ccc(CCn2c3c(c4cc(Cl)ccc42)CN(C)CC3)cn1` [DORASTINE], the IC50 is > 10 µM (inactive) in [14], 4.2 µM (active) in [15], > 33.3 µM (inactive) in “cells” and > 10 µM (inactive) in [16].
